Values quoted from earlier work, collected in patent publication US5731007A, “Pharmaceutical composition for skin diseases” (Yungjin Pharmaceutical Co., Ltd., priority 1994, dated 1998).
“Also recorded” adds a separate entry of the source. Counter-ions that a name gives are not always drawn.

System: gram positive and negative bacteria
Conditions: including strains resistant to antibiotics such as kanamycin

For `CNC[C@@H]1CC[C@@H](N)[C@@H](O[C@H]2[C@H](O)[C@@H](O[C@H]3OC[C@](C)(O)[C@H](NC)[C@H]3O)[C@H](N)C[C@@H]2N)O1` [Micronomicin sulfate, micronomicin sulfate], the “antibacterial activity” value is given as “wide antibacterial spectrum against both gram positive and negative bacteria; also recorded: effective bacteriocidal activity against infections by strains resistant to various antibiotics such as kanamycin”.
